Data from patent US20240293365A1, “METHODS FOR TREATING AND AMELIORATING T CELL RELATED DISEASES” (The Regents of the University of California, priority 2021, published 2024).

Biological target: T1, ZAP70 kinase (Homo sapiens, UniProt P43403)
T1 construct: The FRET change is mediated by the kinase domain; saFRET biosensor module (FRET pair and sensing unit); expressed in transfected cells; host or cells: HEK293
T1 sequence (P43403 338-600 limits assumed): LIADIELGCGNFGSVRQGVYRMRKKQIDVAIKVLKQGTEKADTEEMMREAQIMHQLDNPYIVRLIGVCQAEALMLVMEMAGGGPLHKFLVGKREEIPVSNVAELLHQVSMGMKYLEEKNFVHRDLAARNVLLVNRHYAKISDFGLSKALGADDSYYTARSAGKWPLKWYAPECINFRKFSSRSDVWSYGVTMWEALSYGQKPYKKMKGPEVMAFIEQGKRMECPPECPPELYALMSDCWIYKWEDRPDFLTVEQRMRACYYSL
Assay: saFRET-HTDS: ZAP70 saFRET biosensor screening of a 96-member kinase inhibitor library in HEK293 cells
Format: cell-based
Conditions: 96-member kinase inhibitor library, 10 μM, FIG. 2D
Description: We first screened a 96-member kinase inhibitor library to identify efficient inhibitors of ZAP70 kinase. […] After 40 minutes of incubation with inhibitors, the cells were imaged, and the FRET ratio changes of individual inhibitors compared to the solvent control were calculated to identify promising candidates after this primary endpoint screening (FIG. 2). We further exploited a control biosensor with a kinase-dead domain (saFRETkd) for counter screening to eliminate false-positive hits due to auto-fluorescence or other non-specific effects (1).
C, Schematics of saFRET assay in HEK293 cells.
A, Schematics of the high throughput drug screening platform. First, the cells cultured in 96-well glass-bottom plate were treated either with DMSO or inhibitors from the kinase inhibitor library. After 40 minutes of incubation, the cells were imaged, and the FRET ratio change compared to the control cell was calculated.

Compound | top 10 selected inhibitors of the saFRET screening
NC1CCCN(c2c(/C=C3/SC(=O)NC3=O)cccc2-c2ccccc2)C1 (stereo not drawn) [AZD 1208] | top 10
NC(=O)Nc1cc(-c2cccc(F)c2)sc1C(=O)N[C@H]1CCCNC1 [AZD 7762] | top 10
CCn1c(=O)c(-c2ccc(-c3cncs3)cc2Cl)cc2cnc(Nc3ccc(N4CCN(C)CC4)cc3)nc21 [FRAX 597] | top 10
CNC(=O)c1ccccc1Nc1nc(Nc2ccc(N3CCOCC3)cc2OC)ncc1Cl [NVP-TAE226] | top 10
Cc1[nH]c(/C=C2\C(=O)Nc3ccc(S(=O)(=O)Cc4c(Cl)cccc4Cl)cc32)c(C)c1C(=O)N1CCC[C@@H]1CN1CCCC1 [PHA-665752] | top 10
COc1ccc2cc(-c3nc(-c4ccc([S+](C)[O-])cc4)[nH]c3-c3ccncc3)ccc2c1 (stereo not drawn) [Tie2 kinase inhibitor] | top 10
COc1cc2c(Nc3ccc(NC(=O)c4ccccc4)cc3)ncnc2cc1OCCCN1CCOCC1 [ZM 447439] | top 10
CN[C@@H]1C[C@H]2O[C@@](C)([C@@H]1OC)n1c3ccccc3c3c4c(c5c6ccccc6n2c5c31)C(=O)NC4 [staurosporine] | top 10

Same assay, conditions: inhibitor 10 μM, 40 minutes incubation

Compound | inhibition of ZAP70 kinase domain-mediated activation of saFRET biosensor (FRET ratio change vs solvent control)
Cn1cc(-c2nc(N[C@@H]3CCCC[C@@H]3N)c(F)c3c2C(=O)NC3)cn1 [TAK-659] | relatively ineffective
